PubChem BioAssay AID1918930 (Molecular Pharmacology Branch, DTP, NCI, 2023)
Several values for one entry are separate records, joined by “and”; a condition that tells them apart may be missing. Identical values can stand only once.

System: 233499-124-R-J3-PDC complex spheroid viability, % test/control
Test: Anticancer human tumor 233499-124-R-J3-PDC patient-derived colon adenocarcinoma cell line growth inhibition
Settings: for viability, T/C: stronger effect = lower value
Source text: Multicellular complex tumor spheroid response to LSD1 Inhibitor Iadademstat in combination with a variety of drugs and investigational agents in selected tumor cell lines
The current study was undertaken to assess response to LSD1 inhibitors in combination with standard-of-care drugs and investigational agents in solid tumor complex spheroid models as well as in the K-562 leukemia. Complex spheroids include a stromal component modeled by human endothelial cells (HUVEC) and fibroblasts modeled by human mesenchymal stem cells (MSCs). The concentration ranges selected for each drug and investigational agent were based upon clinically achievable concentrations if the clinical Cmax of the agent was known.
Compounds. The drugs and investigational agents used in this study are listed on Table 1. All of the agents used, including staurosporine (NSC755774) and gemcitabine (NSC613327), were obtained from the Developmental Therapeutics Program, NCI. FDA-approved anticancer drugs are available from the NCI at http://dtp.nci.nih.gov/branches/dscb/oncology_drugset_explanation.html. Drugs and investigational agents were >95% pure by proton nuclear magnetic resonance (NMR) and liquid chromatography/mass spectrometry (LC/MS). Stock solutions were prepared at 400x in DMSO, stored at -70 degrees C, and diluted in fresh medium prior to their use. The final concentration of DMSO in cell culture wells never exceeded 0.25% (v/v). The FDA-approved anticancer drug set is available from the Developmental Therapeutics Program at https://dtp.cancer.gov/organization/dscb/obtaining/available_plates.htm. All drugs and investigational agents were tested over a range starting from a high concentration at or near the clinical Cmax and decreasing in half-log increments. If the clinical Cmax for an agent had not been determined, the highest concentration tested was 10 microM.
Cell Lines. The patient-derived cancer cell (PDC) lines: 292921-168-R-J2-PDC, K24384-001-R-PDC, and 521955-158-R2-J5-PDC pancreatic carcinomas, 556581-035-R-J1 ovarian carcinoma, 324938-238-R-J1-PDC, 855422-203-R-J1-PDC and 883617-216-R-J1-PDC urothelial bladder carcinomas, 743489-274-T-PDC renal cell carcinoma, 138582-R-J1 Merkel cell tumor, K60290-347-R-J1 and K57222-313-R-J1-PDC glioblastomas, 653999-131-R-J2-PDC, LG0703-F948-PDC, and 349418-098-R-PDC non-small cell lung carcinomas, 885512-296-R-J2-PDC, 171881-019-R-J1-PDC breast carcinomas and 186277-243-T-J2-PDC and 233499-124-R-J2-PDC colon carcinomas were obtained from the NCI Patient-Derived Models Repository (PDMR, https://pdmr.cancer.gov). The established cell lines NCI/ADR-RES (RRID:CVCL_14520 and OVCAR-5 (RRID:CVCL_1628) ovarian carcinomas, 786-O (RRID:CVCL_1051) and A498 (RRID:CVCL_A498) renal cell carcinoma, NCI-H211 (ATCC, cat. CRL-5824; RRID:CVCL_1529), NCI-H196 (ATCC, cat. CRL-5823, RRID:CVCL_1509), SW 1271 (ATCC, cat. CRL-2177, RRID:CVCL_1716) and NCI-H1876 (ATCC, cat. CRL-5902, RRID:CVCL_1503) small cell lung carcinomas, MDA-MB-231 (RRID:CVCL_0062) and MDA-MB-468 (RRID:CVCL_0419)breast carcinomas (10-12). Pooled donor human umbilical vein endothelial cells (HUVEC, Lonza, cat. CC-2519) and human mesenchymal stem cells (hMSC, Lonza, cat. PT-2501) were purchased from Lonza (Walkersville, MD).
Cell Culture. All cells were maintained in an incubator at 37 degrees C and 5% CO2 with 95% humidity. The PDC lines were cultured according to standard operating procedures established by the NCI PDMR (https://pdmr.cancer.gov). Briefly all PDCs were thawed and cultured in Matrigel-coated flasks prepared with a working solution of 1X Ham's F-12 nutrient mix, without supplementation (Invitrogen, Waltham, MA, cat. 11765054), 100 U/mL penicillin-streptomycin (Invitrogen, cat. 15140122), and 2.5% Matrigel (Corning Inc., Corning, NY, cat. 354248) for the first three passages. […]

[1] = curve of first compound, second compound 0.1 µM
[2] = curve of first compound, second compound 0.316 µM
[3] = curve of first compound, second compound 1 µM
[4] = curve of first compound, second compound 3.16 µM
[5] = curve of first compound, second compound 10 µM
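Also: spheroids exposed to agents for one week before readout.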

COc1cc(Nc2ncc3c(n2)-c2ccc(Cl)cc2C(c2c(F)cccc2OC)=NC3)ccc1C(=O)O + NC1CC1c1ccc(-c2cccc(O)c2)cc1
IC50 [1]: > 1000 nM
IC50 [2]: > 1000 nM
IC50 [3]: < 3.16 nM
IC50 [4]: < 3.16 nM
IC50 [5]: < 3.16 nM
viability, T/C (second compound 0.1 µM, first compound 0.00316 µM): 44.5%
viability, T/C (second compound 0.1 µM, first compound 0.01 µM): 54.3%
viability, T/C (second compound 0.1 µM, first compound 0.0316 µM): 66.4%
viability, T/C (second compound 0.1 µM, first compound 0.1 µM): 72.5%
viability, T/C (second compound 0.1 µM, first compound 0.316 µM): 62%
viability, T/C (second compound 0.1 µM, first compound 1 µM): 102%
viability, T/C (second compound 0.316 µM, first compound 0.00316 µM): 49.5%
viability, T/C (second compound 0.316 µM, first compound 0.01 µM): 59.6%
viability, T/C (second compound 0.316 µM, first compound 0.0316 µM): 64.1%
viability, T/C (second compound 0.316 µM, first compound 0.1 µM): 62.1%
viability, T/C (second compound 0.316 µM, first compound 0.316 µM): 62.8%
viability, T/C (second compound 0.316 µM, first compound 1 µM): 98.4%
viability, T/C (second compound 1 µM, first compound 0.00316 µM): 44.2%
viability, T/C (second compound 1 µM, first compound 0.01 µM): 50.7%
viability, T/C (second compound 1 µM, first compound 0.0316 µM): 53.2%
viability, T/C (second compound 1 µM, first compound 0.1 µM): 54.3%
viability, T/C (second compound 1 µM, first compound 0.316 µM): 60.6%
viability, T/C (second compound 1 µM, first compound 1 µM): 82.9%
viability, T/C (second compound 3.16 µM, first compound 0.00316 µM): 39.8%
viability, T/C (second compound 3.16 µM, first compound 0.01 µM): 52.1%
viability, T/C (second compound 3.16 µM, first compound 0.0316 µM): 70.5%
viability, T/C (second compound 3.16 µM, first compound 0.1 µM): 57.2%
viability, T/C (second compound 3.16 µM, first compound 0.316 µM): 62.5%
viability, T/C (second compound 3.16 µM, first compound 1 µM): 88.9%
viability, T/C (second compound 10 µM, first compound 0.00316 µM): 33%
viability, T/C (second compound 10 µM, first compound 0.01 µM): 48.3%
viability, T/C (second compound 10 µM, first compound 0.0316 µM): 56.2%
viability, T/C (second compound 10 µM, first compound 0.1 µM): 49%
viability, T/C (second compound 10 µM, first compound 0.316 µM): 52.1%
viability, T/C (second compound 10 µM, first compound 1 µM): 86.1%

CC1COCCN1c1cc(-c2ccnn2C)c2ccnc(-c3ccn[nH]3)c2n1 (stereo not given)
viability, T/C (compound 0.00316 µM): 91.4% and 59.2%
viability, T/C (compound 0.01 µM): 93.3% and 48.8%
viability, T/C (compound 0.0316 µM): 61.6% and 40.6%
viability, T/C (compound 0.1 µM): 34.6% and 38.1%
viability, T/C (compound 0.316 µM): 16.5% and 47.6%
viability, T/C (compound 1 µM): 31.2% and 97.3%

Nc1ncn(C2CC(O)C(CO)S2)c(=O)n1 (stereo not given)
viability, T/C (compound 0.000949 µM): 92.5% and 83.6%
viability, T/C (compound 0.003 µM): 96% and 87.5%
viability, T/C (compound 0.00949 µM): 119% and 95.5%
viability, T/C (compound 0.03 µM): 100% and 94%
viability, T/C (compound 0.0949 µM): 59.1% and 62.5%
viability, T/C (compound 0.3 µM): 28.4% and 35%
IC50 (curve of compound): 133 nM and 160 nM

O=C(c1cc(Cc2n[nH]c(=O)c3ccccc23)ccc1F)N1CCN(C(=O)C2CC2)CC1
viability, T/C (compound 0.0316 µM): 91.1% and 97.1%
viability, T/C (compound 0.1 µM): 92.6% and 76.9%
viability, T/C (compound 0.316 µM): 113% and 88.8%
viability, T/C (compound 1 µM): 97.3% and 90.8%
viability, T/C (compound 3.16 µM): 76.1% and 75.5%
viability, T/C (compound 10 µM): 80.3% and 84.2%
IC50 (curve of compound): > 10000 nM

COc1cc(C2c3cc4c(cc3C(OC3OC5COC(C)OC5C(O)C3O)C3COC(=O)C23)OCO4)cc(OC)c1O (stereo not given) + NC1CC1c1ccc(-c2cccc(O)c2)cc1
IC50 [1]: 717 nM
IC50 [2]: 1690 nM
IC50 [3]: 1540 nM
IC50 [4]: 728 nM
IC50 [5]: 209 nM
viability, T/C (second compound 0.1 µM, first compound 0.00949 µM): 104%
viability, T/C (second compound 0.1 µM, first compound 0.03 µM): 101%
viability, T/C (second compound 0.1 µM, first compound 0.0949 µM): 86.5%
viability, T/C (second compound 0.1 µM, first compound 0.3 µM): 57%
viability, T/C (second compound 0.1 µM, first compound 0.949 µM): 51.9%
viability, T/C (second compound 0.1 µM, first compound 3 µM): 41.5%
viability, T/C (second compound 0.316 µM, first compound 0.00949 µM): 109%
viability, T/C (second compound 0.316 µM, first compound 0.03 µM): 113%
viability, T/C (second compound 0.316 µM, first compound 0.0949 µM): 94.8%
viability, T/C (second compound 0.316 µM, first compound 0.3 µM): 73.4%
viability, T/C (second compound 0.316 µM, first compound 0.949 µM): 51.5%
viability, T/C (second compound 0.316 µM, first compound 3 µM): 47.8%
viability, T/C (second compound 1 µM, first compound 0.00949 µM): 94.3%
viability, T/C (second compound 1 µM, first compound 0.03 µM): 82.1%
viability, T/C (second compound 1 µM, first compound 0.0949 µM): 73.3%
viability, T/C (second compound 1 µM, first compound 0.3 µM): 60.6%
viability, T/C (second compound 1 µM, first compound 0.949 µM): 53.7%
viability, T/C (second compound 1 µM, first compound 3 µM): 45.5%
viability, T/C (second compound 3.16 µM, first compound 0.00949 µM): 91.1%
viability, T/C (second compound 3.16 µM, first compound 0.03 µM): 86.2%
viability, T/C (second compound 3.16 µM, first compound 0.0949 µM): 73%
viability, T/C (second compound 3.16 µM, first compound 0.3 µM): 62.1%
viability, T/C (second compound 3.16 µM, first compound 0.949 µM): 42%
viability, T/C (second compound 3.16 µM, first compound 3 µM): 46.6%
viability, T/C (second compound 10 µM, first compound 0.00949 µM): 71.4%
viability, T/C (second compound 10 µM, first compound 0.03 µM): 72.4%
viability, T/C (second compound 10 µM, first compound 0.0949 µM): 63.1%
viability, T/C (second compound 10 µM, first compound 0.3 µM): 44%
viability, T/C (second compound 10 µM, first compound 0.949 µM): 46.5%
viability, T/C (second compound 10 µM, first compound 3 µM): 40.6%
